In US12252524B2, “GIP/GLP1 co-agonist compounds” (Eli Lilly and Company, priority 2018, dated 2025):
Numbered stars: 1 amine (or outer) side, 2 acyl side, 3 side chain; on linkers, the order of the positions; unused ones are H or OH. Square brackets hold non-standard residues; d marks the D form. Side chains are listed from the residue outwards. Peptide text beside a SMILES is read from it. * marks the point of attachment. C20 diacid = O=C(O)CCCCCCCCCCCCCCCCCCC(=O)*; γGlu = O=C(O)[C@H](CCC(=O)[*:2])N[*:1]; AEEA = NCCOCCOCC(=O)O; Aib = CC(C)(N)C(=O)O

Columns and labels:
human Gcg receptor = biological target: T1, human Gcg receptor (Homo sapiens, UniProt P47871); experiment: [125I]-Glucagon binding (SPA), human Gcg receptor; conditions: read-out: hGLcgR Ki, nM (SEM, n)
T1 construct: expressed in transfected cells; crude membranes
T1 sequence (P47871 26-477): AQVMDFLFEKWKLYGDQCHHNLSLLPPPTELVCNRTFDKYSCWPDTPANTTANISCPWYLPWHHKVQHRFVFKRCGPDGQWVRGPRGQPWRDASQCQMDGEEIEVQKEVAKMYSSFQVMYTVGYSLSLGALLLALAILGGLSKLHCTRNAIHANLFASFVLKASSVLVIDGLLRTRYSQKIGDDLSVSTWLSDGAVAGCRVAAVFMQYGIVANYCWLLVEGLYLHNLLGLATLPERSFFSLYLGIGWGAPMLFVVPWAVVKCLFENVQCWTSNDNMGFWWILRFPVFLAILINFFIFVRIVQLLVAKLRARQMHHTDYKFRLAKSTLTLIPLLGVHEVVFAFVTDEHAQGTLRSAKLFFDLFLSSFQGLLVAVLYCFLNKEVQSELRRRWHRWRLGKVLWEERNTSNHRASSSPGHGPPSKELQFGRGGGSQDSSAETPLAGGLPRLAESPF
Summary of the method: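 Crude membranes from cells expressing the receptor, prepared by hypotonic lysis in 50 mM Tris HCl pH 7.5 with protease inhibitors, homogenization and differential centrifugation, were used in a WGA-bead SPA. Binding buffer: 25 mM HEPES pH 7.4, 2.5 mM CaCl2, 1 mM MgCl2, bacitracin, Tween-20.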

human GIP receptor = biological target: T2, human GIP receptor (Homo sapiens, UniProt P48546); experiment: [125I]-GIP binding (SPA), human GIP receptor; conditions: read-out: hGIPR Ki, nM (SEM, n)
T2 construct: expressed in transfected cells; crude membranes
T2 sequence (P48546 22-466): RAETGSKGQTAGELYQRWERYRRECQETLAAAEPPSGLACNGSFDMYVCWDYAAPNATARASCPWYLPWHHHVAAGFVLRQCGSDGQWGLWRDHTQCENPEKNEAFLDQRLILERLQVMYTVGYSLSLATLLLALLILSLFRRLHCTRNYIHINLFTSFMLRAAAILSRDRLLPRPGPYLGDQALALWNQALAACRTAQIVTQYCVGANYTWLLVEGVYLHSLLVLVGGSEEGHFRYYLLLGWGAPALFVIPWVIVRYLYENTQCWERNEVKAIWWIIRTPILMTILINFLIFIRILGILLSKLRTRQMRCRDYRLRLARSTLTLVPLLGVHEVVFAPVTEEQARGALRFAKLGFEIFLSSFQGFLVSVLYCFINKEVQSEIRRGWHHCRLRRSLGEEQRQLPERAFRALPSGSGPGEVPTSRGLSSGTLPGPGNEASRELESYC

[1] = biological target: human GLP-1 receptor (GLP-1R) (Homo sapiens, UniProt P43220); experiment: cAMP pharmacological functional assay in presence of casein, hGLP-1R; format: cell-based; conditions: HEK293 cells expressing hGLP-1R, 0.1% Casein, geometric mean; read-out: hGLP1R cAMP Rel EC50 nM (SEM, n)
Chain of human GLP-1 receptor (GLP-1R) (P43220 24-463): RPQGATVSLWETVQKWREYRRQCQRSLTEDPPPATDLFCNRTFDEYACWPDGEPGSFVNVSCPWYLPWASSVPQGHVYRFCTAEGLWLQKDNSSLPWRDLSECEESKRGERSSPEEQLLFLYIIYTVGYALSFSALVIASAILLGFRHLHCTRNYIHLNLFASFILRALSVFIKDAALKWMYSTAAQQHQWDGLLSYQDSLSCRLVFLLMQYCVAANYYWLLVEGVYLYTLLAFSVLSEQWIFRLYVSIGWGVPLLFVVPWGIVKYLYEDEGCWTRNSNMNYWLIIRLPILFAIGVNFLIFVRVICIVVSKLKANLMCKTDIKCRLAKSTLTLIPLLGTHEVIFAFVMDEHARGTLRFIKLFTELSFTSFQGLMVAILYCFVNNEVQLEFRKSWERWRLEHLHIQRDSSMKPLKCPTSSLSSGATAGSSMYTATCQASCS

[2] = biological target: T3, gastric inhibitory peptide receptor (GIPR) (Homo sapiens, UniProt P48546); experiment: cAMP pharmacological functional assay in presence of casein, hGIPR; format: cell-based; conditions: HEK293 cells expressing hGIPR, 0.1% Casein, geometric mean; read-out: hGIPR cAMP Rel EC50 nM (SEM, n)
T3 sequence (P48546 22-466): T2 sequence (P48546 22-466)

human GLP-1R = human GLP-1R (Homo sapiens, UniProt P43220); experiment: [125I]-GLP-1 binding (SPA), human GLP-1 receptor; design: expressed in transfected cells; crude membranes; conditions: read-out: hGLP1R Ki, (nM) (SEM, n)
Chain of human GLP-1R (P43220 24-463): as above
Summary of the method: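 Assay buffer: HEPES 25 mM, pH 7.4, CaCl2 2.5 mM, MgCl2 1 mM, with EDTA-free protease inhibitors. Receptor came from crude cell membranes prepared by homogenization and centrifugation at 4° C. IC50s came from four-parameter fits (maximum, minimum, IC50, Hill slope) and were expressed as Ki geometric means with SEM.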

SMILES: CC[C@H](C)[C@H](NC(=O)[C@H](CC(C)C)NC(=O)[C@H](Cc1ccc(O)cc1)NC(=O)[C@H](CCC(=O)O)NC(=O)[C@@H](NC(=O)[C@H](Cc1ccccc1)NC(=O)[C@H](C)NC(=O)C(C)(C)NC(=O)[C@H](CCC(N)=O)NC(=O)[C@H](C)NC(=O)[C@H](CCCCNC(=O)COCCOCCNC(=O)COCCOCCNC(=O)CC[C@H](NC(=O)CCCCCCCCCCCCCCCCCCC(=O)O)C(=O)O)NC(=O)[C@H](CCCCN)NC(=O)[C@H](CC(=O)O)NC(=O)[C@H](CC(C)C)NC(=O)[C@H](CC(C)C)NC(=O)[C@@H](NC(=O)[C@H](CO)NC(=O)[C@H](C)NC(=O)[C@H](CC(=O)O)NC(=O)[C@H](CO)NC(=O)[C@@H](NC(=O)[C@H](Cc1ccccc1)NC(=O)[C@@H](NC(=O)CNC(=O)[C@H](CCC(=O)O)NC(=O)C(C)(C)NC(=O)[C@@H](N)Cc1ccc(O)cc1)[C@@H](C)O)[C@@H](C)O)[C@@H](C)CC)[C@@H](C)CC)C(=O)N[C@@H](CCC(=O)O)C(=O)NCC(=O)NCC(=O)N1CCC[C@H]1C(=O)N[C@@H](CO)C(=O)N[C@@H](CO)C(=O)NCC(=O)N[C@@H](C)C(=O)N1CCC[C@H]1C(=O)N1CCC[C@H]1C(=O)N1CCC[C@H]1C(=O)N[C@@H](CO)C(N)=O [Example 85] (H-Y[Aib]EGTFTSDASILLDKK([AEEA-AEEA-γGlu-C20 diacid])AQ[Aib]AFIEYLIEGGPSSGAPPPS-NH2)
- Ki (human Gcg receptor): > 894 nM
- Ki (human GIP receptor): 0.621 nM
- EC50 [1]: 0.0518 nM
- EC50 [2]: 1.67 nM
- Ki (human GLP-1R): 1.87 nM

SMILES: CC[C@H](C)[C@H](NC(=O)[C@H](CC(C)C)NC(=O)[C@H](Cc1ccc(O)cc1)NC(=O)[C@H](CCC(=O)O)NC(=O)[C@@H](NC(=O)[C@H](Cc1ccccc1)NC(=O)[C@H](C)NC(=O)C(C)(C)NC(=O)[C@H](CCC(N)=O)NC(=O)[C@H](C)NC(=O)[C@H](CCCCNC(=O)COCCOCCNC(=O)COCCOCCNC(=O)CC[C@H](NC(=O)CCCCCCCCCCCCCCCCCCC(=O)O)C(=O)O)NC(=O)[C@H](CCCCN)NC(=O)[C@H](CC(=O)O)NC(=O)[C@H](CC(C)C)NC(=O)[C@H](CC(C)C)NC(=O)[C@@H](NC(=O)[C@H](CO)NC(=O)[C@H](Cc1ccc(O)cc1)NC(=O)[C@H](CC(=O)O)NC(=O)[C@H](CO)NC(=O)[C@@H](NC(=O)[C@H](Cc1ccccc1)NC(=O)[C@@H](NC(=O)CNC(=O)[C@H](CCC(=O)O)NC(=O)C(C)(C)NC(=O)[C@@H](N)Cc1ccc(O)cc1)[C@@H](C)O)[C@@H](C)O)[C@@H](C)CC)[C@@H](C)CC)C(=O)N[C@@H](CCC(=O)O)C(=O)N[C@@H](C)C(=O)NCC(=O)N1CCC[C@H]1C(=O)N[C@@H](CO)C(=O)N[C@@H](CO)C(=O)NCC(=O)N[C@@H](C)C(=O)N1CCC[C@H]1C(=O)N1CCC[C@H]1C(=O)N1CCC[C@H]1C(=O)N[C@@H](CO)C(N)=O [Example 86] (H-Y[Aib]EGTFTSDYSILLDKK([AEEA-AEEA-γGlu-C20 diacid])AQ[Aib]AFIEYLIEAGPSSGAPPPS-NH2)
- Ki (human Gcg receptor): > 1060 nM
- Ki (human GIP receptor): 0.0401 nM
- EC50 [1]: 0.271 nM
- EC50 [2]: 0.0452 nM
- Ki (human GLP-1R): 3.74 nM
